# Patent US6818621B2, “Osteopontin-derived chemotactic and inhibitory agents and uses therefor” (Children's Medical Center Corporation, priority 1999, dated 2004)
# Marks after values point to notes of the source that are not given here. Where no end group is shown, it is not given here.
# Columns and labels:
# [1] = system: MDA-MB-231 cells (CD44+ human breast adenocarcinoma cells); assay: Chemotactic chamber (Boyden) assay, migration through polycarbonate filters; type: cell-based; conditions: for MI buffer: cells migrating in response to peptide divided by cells migrating in response to buffer; for mean number of migrating cells per six random high powered fields: Table 2
# Description: Each peak was then tested for mediation of chemotaxis or for its ability to inhibit OPN mediated chemotaxis using the chemotactic assay as follows (see e.g., Weber et al. (1996) Science 271:509-512). Briefly, uncoated polycarbonated filters (pore size […] ) were used to separate the upper and lower chambers of chemotactic wells. 1×10^3 MDA-MB-231 cells (CD44^+human breast adenocarcinoma cells) were added to the upper chamber and incubated in the presence or absence of the indicated 50 pmols peptide. After 4 hours, the filters were removed, fixed in methanol arid stained with hematoxylin and eosin. Cells which have responded to the peptide, migrate to various areas of the lower surface and can be counted microscopically. Each data point is reported as the mean number of migrating cells per random high power field.
# Peptide 51 was identified as being chemotactic. The peptide was sequenced using a gas-phase sequenator and determined to have the sequence LVLDPK (SEQ ID NO:1). To confirm that chemotaxis was due to this peptide, a 16 amino acid peptide spanning the chemotactic sequence in OPN was synthesized and tested for its chemotactic properties. The resulting peptide, SP64 has the sequence KFHSHKDKLVLDPKSK (SEQ ID NO:2) and containing the chemotactic sequence from residues 9-14. 2×10^4 MDA-MB-231 cells were assayed for chemotactic response to the indicated peptides as described above. Each data point is reported as the mean number of migrating cells per six random high powered fields ± standard error of the mean. Each experiment was repeated four times.
# To test the amino acid specificity for chemotactic response several substitutions were created in the chemotactic sequence and the new peptides tested for their ability to induce chemotaxis. Data are expressed as migratory index (cells migrating in response to peptide/cells migration in response to LVLDPK, SEQ ID NO:1).
# (§1) To evaluate the potential of peptide analogues to inhibit OPN induced chemotaxis, 100 nmoles of peptide was added to the lower compartment and the response of these cells to OPN was determined as described. MI(buffer) was calculated by dividing the number of cells migrating in response to peptide by the number of cells migrating in response to buffer. MI(inhibitory) equals the number of cells migrating towards OPN in the presence of buffer divided by the number migrating towards OPN in the presence of peptide.
# MDA-MB-231 cells [2] = assay: Inhibition of OPN induced chemotaxis in the chemotactic chamber assay; type: cell-based, human; conditions: for MI inhibitory: Table 4, 100 nmoles of peptide, cells migrating towards OPN in presence of buffer divided by number migrating towards OPN in presence of peptide
# Description: as §1
# MDA-MB-231 cells [3] = assay: Apoptosis by TUNEL (In situ Cell Death Detection Kit); type: cell-based, human; conditions: 100 nM, 12 hours; for increase in apoptosis as compared to OPN: TUNEL
# Description: (§2) One million MDA-MB-231 cells were incubated with 100 nM of the OPN, LVVDPK (SEQ ID NO:8), Ac-MLDP (SEQ ID NO:23) or Ac-HKDKMLDP (SEQ ID NO:24) in DME containing 10% FBS in a humidified atmosphere of 5% CO2 at […]. After 12 hours, Caspase 8 and the % of apoptotic cells were determined. Caspase was determined by a fluorescent assay using Chemicon's FLICE/Caspase-8 Fluorometric Protease Assay Kit as described by the manufacturers. Apoptosis was determined using TUNEL using the “In situ Cell Death Detection Kit” (Boehringer-Mannheim, Germany).
# Caspase 8 = assay: FLICE/Caspase-8 Fluorometric Protease Assay; type: cell-based, human; conditions: 100 nM, 12 hours, MDA-MB-231 cells
# Description: as §2
# [4] = system: Peritoneal macrophages, fibroblasts or osteoblasts; assay: Apoptosis of non-tumor cells treated with PepM; type: cell-based
# breast tumor cells = assay: Nitric oxide production, nitrate in culture supernatants (Griess reagents); type: cell-based; conditions: 12 hours after incubation
# Description: The production of nitric oxide (NO) by the breast tumor cells was assessed 12 hours after incubation in the presence of pepL by measuring the accumulation of nitrate in culture supernatants. Griess reagents were used as described by Hwang et al. (1993).
# [5] = system: cells recruited into the peritoneum; assay: In vivo chemotaxis after injection of peptide into the peritoneal cavity, lavage and flow cytometry; design: species or system C57 black mice; conditions: coinjected with the chemotactic agent
# peritoneal exudate cells = assay: In vivo cellular migration after intraperitoneal injection of osteopontin, peritoneal exudate flow cytometry; design: species or system Mice
# Description: Mice were injected intraperitoneally with varying dosages of K7 osteosarcoma-derived osteopontin. All injection volumes were 200 μl. Injections of vehicle alone (PBS) served as negative controls and vehicle plus 20 μg lipopolysaccharide (LPS) injections served as positive controls for elicitation of peritoneal exudates.
# Mice were sacrificed by CO2-asphyxiation at varying times following injection. Immediately after sacrifice, peritoneal exudate was recovered by intraperitoneal injection and recovery of 10 mL PBS. The lavage procedure was performed twice on each mouse. Following this, red blood cells were lysed by hypotonic lysis with ACK lysis buffer (0.15 M NH4Cl, 1.0 mM KHCO3, 0.1 mM Na2EDTA, pH 7.4) for 5 minutes at room temperature, and the preparation was washed in DMEM, 5% FBS. Cells were resuspended in DMEM, 5% FBS for fluorescent antibody staining.
# Each sample of cells to be analyzed for specific surface markers was suspended in DMEM, 5% FBS at a concentration of 0.2 to 1 million cells in 50 μl. Fluorescence-labeled antibodies were added at 1 μg/1×10^6 cells, and incubated with the cells for 30 minutes at 4° C. Samples were washed twice with 200 μl of PBS following antibody staining and fixed with 500 μl of 2% paraformaldehyde in PBS. Peritoneal exudate cells were analyzed by dual-color flow cytometry for expression of CD44 (PE), CD 11 b (Mac-1, FITC, macrophage marker), B220 (FITC, B-cell marker), and CD3 (FITC, T-cell marker). All antibodies were purchased from PharMingen and flow cytometric analysis was done using a Coulter EPICS flow cytometer. Controls for non-specific binding and single color controls were included.
# To further characterize the effects of osteopontin on in vivo cellular migration, a time course experiment was performed using an osteopontin dosage that elicited peak levels of infiltration. The total cellular response to osteopontin administration peaked sharply at 4 to 6 hours. This is likely to be due to a high rate of clearance from the peritoneal cavity.
# [6] = system: cells recruited into the peritoneum; assay: In vivo chemotaxis after injection of peptide into the peritoneal cavity, lavage and flow cytometry; design: species or system C57 black mice; conditions: 25 nmols i.p., 6 hours, normalized to PBS-injected mouse, average of 6 mice
# Description: Since the peptide LVLDPK (SEQ ID NO:1) was chemotactic to tumor cells and macrophages in vitro, we tested whether the peptide was chemotactic in vivo. 25 nmols of the peptide were injected into the peritoneal cavity of C57 black mice. After six hours the cells recruited into the peritoneum were recovered by lavage and identified by flow cytometry. Titration of soluble peptides into the peritoneum induces a cellular infiltrate in a dose dependent manner. The induction ratio is the number of cells of a particular lineage recovered from the peritoneum of a peptide-injected mouse (e.g., 6 hours after injection) normalized for each experiment to the number of cells of the same lineage recovered from the peritoneum of a PBS-injected mouse. Cell numbers for PBS-injected mice ranged from […] to 646,000 cells total; 182,300 to 325,000 CD44^+ cells; 224,000 to 496,000 […] cells; 31,300 to 76,000 B220^+ cells; 18,100 to 21,100 CD3^+ cells), representing the induction of macrophages (Mac-1^+), B cells (B220^+), and T cells (CD3^+). Values represent an average of 6 mice.
# macrophage = assay: Inhibition of macrophage recruitment by osteopontin, C5a and fibronectin; conditions: C5a and by fibrorectin
substance,measurement,setting,value
Acetyl-HKDKMLDP (Ac-HKDKMLDP) [pepM],MI buffer,[1]; Table 4,0.8
same,MI inhibitory,MDA-MB-231 cells [2],2
same,apoptosis (in words),MDA-MB-231 cells [3],activation of apoptosis
same,increase in apoptosis as compared to OPN,MDA-MB-231 cells [3],~120%
same,increase In Caspase 8 activity,Caspase 8,~80%
same,apoptosis of non-tumor cells,[4],did not undergo apoptosis
Acetyl-MLDP (Ac-MLDP) [pepL],MI buffer,[1]; Table 4,1
same,MI inhibitory,MDA-MB-231 cells [2],2
same,apoptosis (in words),MDA-MB-231 cells [3],activation of apoptosis
same,increase in apoptosis as compared to OPN,MDA-MB-231 cells [3],80%
same,increase In Caspase 8 activity,Caspase 8,~65%
same,NO production,breast tumor cells,increased NO production
same,effect on chemotactic response to OPN of LVLDPK in vivo,[5],totally abolished the chemotactic response
LVVDPK (OTHER INFORMATION: Description of Artificial Sequence:Synthetic Peptide) [pepA′],MI buffer,[1]; Table 4,9
same,MI,"[1]; Table 4, migratory index",1
same,MI inhibitory,MDA-MB-231 cells [2],8
same,apoptosis (in words),MDA-MB-231 cells [3],virtually undetectable
same,Caspase 8 activity (in words),Caspase 8,virtually undetectable
"OPN: osteopontin protein; bone OPN in vitro, K7 osteosarcoma-derived osteopontin in Example 3",mean number of migrating cells per six random high powered fields,"[1]; labelled agent in lower chamber, Ab64 in upper chamber",36 cells per six random high powered fields
same,mean number of migrating cells per six random high powered fields,"[1]; labelled agent in lower chamber, OPN in upper chamber",16 cells per six random high powered fields
same,mean number of migrating cells per six random high powered fields,"[1]; labelled agent in lower chamber, PBS in upper chamber, 2×10^4 cells",214 cells per six random high powered fields
same,mean number of migrating cells per six random high powered fields,"[1]; labelled agent in lower chamber, SP64 in upper chamber",187 cells per six random high powered fields
same,mean number of migrating cells per six random high powered fields,"[1]; labelled agent in lower chamber, pep 51 in upper chamber",44 cells per six random high powered fields
same,mean number of migrating cells per six random high powered fields,"[1]; labelled agent in upper chamber, PBS in lower chamber",23 cells per six random high powered fields
same,chemotactic response of MDA-MB231 (in words),"[1]; p<0.01, 200 ng of bone OPN",stimulated the chemotactic response
same,number of CD3+ and B220+ cells,peritoneal exudate cells; 6 hours after injection,only marginally elevated
same,number of Mac-1+ cells in the infiltrate,"peritoneal exudate cells; 6 hours after injection, over basal levels",increased fivefold over basal levels
same,peritoneal cells recovered,peritoneal exudate cells; OPN alone,1.16 million cells
same,number of CD44+ Mac1+ cells,peritoneal exudate cells; at a dose around 7 μg,nearly sixfold reduction
same,dose of peak response of the cellular infiltrate,"peritoneal exudate cells; intraperitoneal, 6 hours after injection",around 13 μg
same,cellular infiltrate (in words),"peritoneal exudate cells; titration into the peritoneum, 6 hours after injection",dose dependent increase
same,"induction ratio, Total",[6],11.3
same,"induction ratio, Total CD44",[6],9.6*
same,"induction ratio, B-lymphocytes",[6]; B220+,1.2
same,"induction ratio, T-lymphocytes",[6]; CD3+,1
same,"induction ratio, Monocytes",[6]; Mac-1+,10.4*
VLEP (OTHER INFORMATION: Description of Artificial Sequence:Synthetic Peptide) [pepJ′],Migratory Index,"[1]; Table 3, cells migrating in response to peptide/cells migration in response to LVLDPK",0.1
same,inhibition of chemotaxis by peptide (in words),MDA-MB-231 cells [2]; migratory index against peptide 51,inhibitory for chemotaxis
same,inhibition of macrophage recruitment,macrophage,inhibits macrophage recruitment
